Key:
[1] = test system: Bacillus stearothermophilus spores; assay: Spore outgrowth (color change) of indicators after prevacuum steam sterilization; format: cell-based; details: 4-pulse prevacuum steam 121° C., 7–13 min
Procedure: (§1) The indicators prepared for the Examples were dual rapid readout indicators that provided both a rapid, enzyme-based efficacy test and a confirmatory spore outgrowth test. Spores coated on the carrier strip 16 served as the source of active enzyme whose activity was measured by the rapid enzyme test. These same spores were then incubated in the spore outgrowth portion of the test.
(§2) Bacillus stearothermophilus, commercially available as ATCC 7953 from American Type Culture Collection, Rockville, Md., was grown overnight (16 hours) at 58° C. in tryptic soy broth. This culture was used to inoculate the surface of agar plates consisting of 8 g/l nutrient broth, 4 g/l yeast extract, 0.1 g/l manganese chloride and 20 g/l agar at pH 7.2. Plates were incubated at 58° C. for 72 hours. Spores were scraped from the plates and suspended in sterile distilled water. The spores were separated from the vegetative debris by centrifuging the suspension at 7000 rpm and 4° C. for 20 minutes. The supernatant was poured off and the spores were resuspended in sterile distilled water. The cleaning procedure was repeated several times. After the final wash, the spores were suspended in sterile distilled water, at a concentration of approximately 1×10^8 spores per milliliter.
(§3) The spores were then treated with the chemicals identified in Tables 1–5. All chemicals tested were obtained from commercial sources. The spores were centrifuged at 6000 rpm for 10 minutes. The supernatant and coating chemical mixtures were heated at 60–80° C. for several minutes and vortexed to get the material into solution. The spores were then mixed into the sterilant-resistant chemical solution. The sterilant-resistant chemical solution was applied to 5×25 mm, 591 A paper strips (Schleicher & Schuell, Inc., Keene, N.H.) by pipetting 10–15 microliters to each strip for a final population of about 1×10^6 spores per strip. The strips were dried 16 hours at 37° C.
(§4) The treated spore strips were placed on the bottom of the outer container 12 of the indicator 10 and a barrier was inserted between the spore strip 16 and the inner container 18, which contained enzyme substrate. A […] ( 11/16 inch) disc of polypropylene blown microfiber material, with a weight of 200 g/m^2, commercially available as “THINSULATE™ 200-B brand Thermal Insulation” from 3M Company, St. Paul, Minn., was used as the barrier. The inner container 18 contained 0.67 ml nutrient medium, consisting of 17 g of a bacteriological peptone and a 0.17 g/l of L-alanine, as well as 0.1 g 4-methylumbelliferyl-alpha-D-glucoside, commercially available from Sigma Chemical Company, St. Louis, Mo., dissolved in 200 microliters of N,N-dimethylformamide, and 0.03 g bromocresol purple pH indicator dye, per liter of water. The pH of the enzyme substrate and nutrient medium solution was adjusted to 7.6 with 0.1N sodium hydroxide.
(§5) Sterilization indicators were made as described above with each of the chemicals and concentrations described in Table 1. Control indicators were made using untreated spores. The indicators were placed in metal instrument trays and exposed at 121° C. in a Getinge Steam Sterilizer (Getinge International, Inc., 1100 Towbin Ave., Lakewood, N.J.) using a 4-pulse prevacuum cycle at 121° C. with a vacuum level of 0.075–0.085 bar and a steam pulse to 1.00 bar for each pulse. Indicators were exposed in the sterilizer for between 7 and 13 minutes. This cycle is depicted in the time-pressure diagram in FIG. 5. After exposure the inner containers containing the enzyme substrate and nutrient medium were crushed and the indicators were incubated at 60° C. The indicators were examined for fluorescence using a 3M™ ATTEST™ Model 190 Rapid Autoreader, commercially available from 3M Company, St. Paul, Minn. Additionally, spore growth, as indicated by a color change from purple to yellow, was determined visually after 168 hours of incubation at 60° C. […]

[2] = test system: enzyme associated with Bacillus stearothermophilus spores; assay: Rapid enzyme fluorescence readout of dual rapid readout indicators after prevacuum steam sterilization; format: biochemical; details: 4-pulse prevacuum steam 121° C.; for FLUORESCENCE - PERCENT POSITIVE 1 HR / FLUORESCENCE - PERCENT POSITIVE 2 HR / FLUORESCENCE - PERCENT POSITIVE 3 HR / FLUORESCENCE - PERCENT POSITIVE 4 HR / FLUORESCENCE - PERCENT POSITIVE 5 HR / FLUORESCENCE - PERCENT POSITIVE 6 HR: 7–13 min
Procedure: as §1, §2, §3, §4, §5

`OCC(O)COCC(O)COCC(O)CO` (stereo not shown) [Triglycerol] was tested, and the “NO. GROWTH POSITIVE 168 HR” value ([1]; Example 2, 5 mg/ml coating) was 10, the “NO. GROWTH POSITIVE 168 HR” value ([1]; Example 2, 10 mg/ml coating) was 15 and the “NO. GROWTH POSITIVE 168 HR” value ([1]; Example 2, 20 mg/ml coating) was 24. The “NO. GROWTH POSITIVE 168 HR” value ([1]; Example 2, 40 mg/ml coating) was 27, the “NO. GROWTH POSITIVE 168 HR” value ([1]; Example 2, 80 mg/ml coating) was 31 and the “accuracy of sterilization indicators compared to indicators made with untreated spores” value [2] was “did not improve the accuracy”. The “FLUORESCENCE - PERCENT POSITIVE 1 HR” value ([2]; Example 2, 5 mg/ml coating) was 0%, the “FLUORESCENCE - PERCENT POSITIVE 2 HR” value ([2]; Example 2, 5 mg/ml coating) was 0% and the “FLUORESCENCE - PERCENT POSITIVE 3 HR” value ([2]; Example 2, 5 mg/ml coating) was 0%. For the same compound, the “FLUORESCENCE - PERCENT POSITIVE 4 HR” value ([2]; Example 2, 5 mg/ml coating) was 10.0%, the “FLUORESCENCE - PERCENT POSITIVE 5 HR” value ([2]; Example 2, 5 mg/ml coating) was 30.0% and the “FLUORESCENCE - PERCENT POSITIVE 6 HR” value ([2]; Example 2, 5 mg/ml coating) was 40.0%. The “FLUORESCENCE - PERCENT POSITIVE 1 HR” value ([2]; Example 2, 10 mg/ml coating) was 0%, the “FLUORESCENCE - PERCENT POSITIVE 2 HR” value ([2]; Example 2, 10 mg/ml coating) was 6.7% and the “FLUORESCENCE - PERCENT POSITIVE 3 HR” value ([2]; Example 2, 10 mg/ml coating) was 20.0%. The “FLUORESCENCE - PERCENT POSITIVE 4 HR” value ([2]; Example 2, 10 mg/ml coating) was 26.7%, the “FLUORESCENCE - PERCENT POSITIVE 5 HR” value ([2]; Example 2, 10 mg/ml coating) was 53.3% and the “FLUORESCENCE - PERCENT POSITIVE 6 HR” value ([2]; Example 2, 10 mg/ml coating) was 60.0%. The “FLUORESCENCE - PERCENT POSITIVE 1 HR” value ([2]; Example 2, 20 mg/ml coating) was 0%, the “FLUORESCENCE - PERCENT POSITIVE 2 HR” value ([2]; Example 2, 20 mg/ml coating) was 0% and the “FLUORESCENCE - PERCENT POSITIVE 3 HR” value ([2]; Example 2, 20 mg/ml coating) was 8.3%. For the same compound, the “FLUORESCENCE - PERCENT POSITIVE 4 HR” value ([2]; Example 2, 20 mg/ml coating) was 29.2%, the “FLUORESCENCE - PERCENT POSITIVE 5 HR” value ([2]; Example 2, 20 mg/ml coating) was 41.7% and the “FLUORESCENCE - PERCENT POSITIVE 6 HR” value ([2]; Example 2, 20 mg/ml coating) was 45.8%. For the same compound, the “FLUORESCENCE - PERCENT POSITIVE 1 HR” value ([2]; Example 2, 40 mg/ml coating) was 0%, the “FLUORESCENCE - PERCENT POSITIVE 2 HR” value ([2]; Example 2, 40 mg/ml coating) was 0% and the “FLUORESCENCE - PERCENT POSITIVE 3 HR” value ([2]; Example 2, 40 mg/ml coating) was 29.6%. For the same compound, the “FLUORESCENCE - PERCENT POSITIVE 4 HR” value ([2]; Example 2, 40 mg/ml coating) was 48.1%, the “FLUORESCENCE - PERCENT POSITIVE 5 HR” value ([2]; Example 2, 40 mg/ml coating) was 51.9% and the “FLUORESCENCE - PERCENT POSITIVE 6 HR” value ([2]; Example 2, 40 mg/ml coating) was 63.0%. The “FLUORESCENCE - PERCENT POSITIVE 1 HR” value ([2]; Example 2, 80 mg/ml coating) was 0%, the “FLUORESCENCE - PERCENT POSITIVE 2 HR” value ([2]; Example 2, 80 mg/ml coating) was 3.2% and the “FLUORESCENCE - PERCENT POSITIVE 3 HR” value ([2]; Example 2, 80 mg/ml coating) was 38.7%. The “FLUORESCENCE - PERCENT POSITIVE 4 HR” value ([2]; Example 2, 80 mg/ml coating) was 51.6%, the “FLUORESCENCE - PERCENT POSITIVE 5 HR” value ([2]; Example 2, 80 mg/ml coating) was 58.1% and the “FLUORESCENCE - PERCENT POSITIVE 6 HR” value ([2]; Example 2, 80 mg/ml coating) was 64.5%.
With POE(15) Glyceryl Monostearate the “NO. GROWTH POSITIVE 168 HR” value ([1]; Example 5, 50 mg/ml coating) was 7, the “NO. GROWTH POSITIVE 168 HR” value ([1]; Example 5, 100 mg/ml coating) was 4 and the “FLUORESCENCE - PERCENT POSITIVE 1 HR” value ([2]; Example 5, 50 mg/ml coating) was 0%. For the same compound, the “FLUORESCENCE - PERCENT POSITIVE 2 HR” value ([2]; Example 5, 50 mg/ml coating) was 0%, the “FLUORESCENCE - PERCENT POSITIVE 3 HR” value ([2]; Example 5, 50 mg/ml coating) was 42.9% and the “FLUORESCENCE - PERCENT POSITIVE 4 HR” value ([2]; Example 5, 50 mg/ml coating) was 57.1%. The “FLUORESCENCE - PERCENT POSITIVE 1 HR” value ([2]; Example 5, 100 mg/ml coating) was 0%, the “FLUORESCENCE - PERCENT POSITIVE 2 HR” value ([2]; Example 5, 100 mg/ml coating) was 0% and the “FLUORESCENCE - PERCENT POSITIVE 3 HR” value ([2]; Example 5, 100 mg/ml coating) was 0%. For the same compound, the “FLUORESCENCE - PERCENT POSITIVE 4 HR” value ([2]; Example 5, 100 mg/ml coating) was 0%.
